The values below come from publication PMC10563463 (Cell Transplantation, 2023).

The assay addresses recombinant human SUV39H1 (rhSUV39H1) (Homo sapiens, UniProt O43463). The experiment in a line: biochemical.

The structures appear in SMILES notation.

Chain of recombinant human SUV39H1 (rhSUV39H1) (O43463 whole entry): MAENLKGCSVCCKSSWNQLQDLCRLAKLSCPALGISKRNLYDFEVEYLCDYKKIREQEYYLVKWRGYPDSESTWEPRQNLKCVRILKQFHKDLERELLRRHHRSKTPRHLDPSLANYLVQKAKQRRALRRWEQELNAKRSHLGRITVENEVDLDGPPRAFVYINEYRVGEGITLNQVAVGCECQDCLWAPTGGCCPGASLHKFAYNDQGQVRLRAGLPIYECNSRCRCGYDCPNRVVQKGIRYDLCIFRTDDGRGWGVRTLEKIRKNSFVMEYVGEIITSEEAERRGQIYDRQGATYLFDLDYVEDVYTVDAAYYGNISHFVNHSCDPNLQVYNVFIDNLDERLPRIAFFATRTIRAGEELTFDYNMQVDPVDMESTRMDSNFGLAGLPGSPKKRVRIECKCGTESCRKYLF

The Kd is the free concentration of one partner at which half of the binding sites on the other are occupied at equilibrium, for simple one-to-one binding. With `CC(C)(O)[C@@H]1CC[C@](C)([C@H]2[C@@H](O)C[C@@]3(C)[C@@H]4C[C@H](O[C@@H]5O[C@H](CO)[C@@H](O)[C@H](O)[C@H]5O)[C@H]5C(C)(C)[C@@H](O[C@@H]6OC[C@@H](O)[C@H](O)[C@H]6O)CC[C@@]56C[C@@]46CC[C@]23C)O1` [Astragaloside IV], the Kd was determined as 21.4 µM.
